In patent US10023612B2, “Method of treating endometriosis” (ValiRx PLC, priority 2011, dated 2018):
Where “and” joins values, the source holds several entries; their conditions need not be identical. Equal entries are not always repeated.

Tests used:
[1] = mouse, in vivo
Method: 8-10 week old, female nulliparous C57BL6 mice were acclimatised for 1 week. A group of 10 female animals were dosed with 10 ng of peptide injected subcutaneously 3 days prior to experimentation with a control group of 10 animals treated with vehicle alone.
5 male C57BL6 animals were introduced and the females checked daily for mucous plug (before 9 a.m.). When mucous plug was recorded the females were evaluated for:
a) Length of possible pregnancy (days)
c) Anomalies in offspring

[2] = system: endometriosis lesions (plugs of uterine tissue); test: Dose ranging prevention study, transplanted plugs of uterine tissue; format: in vivo, C57BL6 mice; conditions: for Lesion burden Ave / Lesion growth Ave: average per mouse; for Lesion burden Mean / Lesion establishment Mean / Lesion growth Mean: group mean; for Lesion burden P1 / Lesion burden P2 / Lesion burden P3 / Lesion burden P4 / Lesion burden P5 / Lesion burden P6 / Lesion growth M1 / Lesion growth M2 / Lesion growth P1 / Lesion growth P2 / Lesion growth P3 / Lesion growth P4 / Lesion establishment M1 / Lesion establishment M2 / Lesion establishment P1 / Lesion establishment P2 / Lesion establishment P3 / Lesion establishment P4: individual mouse; for Lesion establishment M1 / Lesion establishment M2 / Lesion establishment P1 / Lesion establishment P2 / Lesion establishment P3 / Lesion establishment P4: 1 or 0; for Lesion establishment Ave: per mouse
[3] = system: endometriosis lesion; test: First study: in-vivo model of endometriosis, tissue from K-rasV12/Ah-Cre/ROSA26R-LacZ donor mice in wild-type animals; conditions: four treated animals, injected for 21 days
Method: In a first study, a total of 4 treatment and 5 control animals were generated in a novel in-vivo model of endometriosis (Research Horizons, University of Cambridge, 2009 Issue 8, GB 0715635.9) K-rasV12/Ah-Cre transgenic mice were crossed with Rosa26R mice to generate KrasV12+/−/Ah-Cre+/−/ROSA26R-LacZ+/− transgenic mice. The F1 offspring were inbred to generate F2 K-rasV12+/−/Ah-Cre+/+/ROSA26R-LacZ+/+ transgenic mice. The presence of the transgenes was determined by PCR using gene specific primers for K-ras, Cre and Rosa26R-LacZ. Tissue was collected from donor animals previously treated with hormones etc. and was divided between wild-type animals that were then injected with drug or vehicle for 21 days.

[4] = mouse, in vivo; remark: listed apart in the source
Source text: Offspring from dosed females were mated and checked for fertility to determine possible inheritable effects.

fertility of mice [1]: does not affect their fertility | fertility of offspring from dosed females [4]: no abnormalities noted
Substance: Ac-PPPHPHARIK-NH2 [ValiRx1, Ac-Pro-Pro-Pro-His-Pro-His-Ala-Arg-Ile-Lys-NH2]
lesion growth following treatment vs control group ([2]; 1 ng, 10 ng or 100 ng s.c. daily): significantly reduced | Lesion burden Ave ([2]; 1 ng/mouse s.c. daily): 1.1 mm^2 and 1.9 mm^2 and 12.1 mm^2 and 6.5 mm^2 and 8.5 mm^2 | Lesion growth Ave ([2]; 1 ng/mouse s.c. daily): 6.5 mm^2 and 8.5 mm^2 and 1.3 mm^2 and 1.9 mm^2 and 12.1 mm^2 | Lesion burden Mean ([2]; 1 ng/mouse s.c. daily): 6.02 mm^2 | Lesion establishment Mean ([2]; 1 ng/mouse s.c. daily): 96.67% | Lesion growth Mean ([2]; 1 ng/mouse s.c. daily): 6.23 mm^2 | Lesion burden P1 ([2]; 1 ng/mouse s.c. daily): 1.8 mm^2 and 1.1 mm^2 and 4.2 mm^2 and 15.1 mm^2 and 10.2 mm^2 | Lesion burden P2 ([2]; 1 ng/mouse s.c. daily): 0.2 mm^2 and 3.1 mm^2 and 16.7 mm^2 and 5.7 mm^2 and 10.6 mm^2 | Lesion burden P3 ([2]; 1 ng/mouse s.c. daily): 0.1 mm^2 and 2.5 mm^2 and 15.2 mm^2 and 8.0 mm^2 and 16.6 mm^2 | Lesion burden P4 ([2]; 1 ng/mouse s.c. daily): 0.0 mm^2 and 0.2 mm^2 and 17.0 mm^2 and 3.8 mm^2 (2×) | Lesion burden P5 ([2]; 1 ng/mouse s.c. daily): 3.5 mm^2 and 1.1 mm^2 and 11.2 mm^2 and 0.2 mm^2 and 0.5 mm^2 | Lesion burden P6 ([2]; 1 ng/mouse s.c. daily): 1.1 mm^2 and 3.5 mm^2 and 8.0 mm^2 and 6.2 mm^2 and 9.4 mm^2 | Lesion growth M1 ([2]; 1 ng/mouse s.c. daily): 0.196 mm^2 and 0.503 mm^2 and 3.456 mm^2 and 1.131 mm^2 and 11.2 mm^2 | Lesion growth M2 ([2]; 1 ng/mouse s.c. daily): 6.158 mm^2 and 9.425 mm^2 and 1.131 mm^2 and 3.464 mm^2 and 8.042 mm^2 | Lesion growth P1 ([2]; 1 ng/mouse s.c. daily): 1.131 mm^2 and 4.155 mm^2 and 15.1 mm^2 and 10.18 mm^2 and 1.767 mm^2 | Lesion growth P2 ([2]; 1 ng/mouse s.c. daily): 3.142 mm^2 and 16.74 mm^2 and 5.694 mm^2 and 10.56 mm^2 and 0.196 mm^2 | Lesion growth P3 ([2]; 1 ng/mouse s.c. daily): 2.545 mm^2 and 15.21 mm^2 and 8.042 mm^2 and 16.62 mm^2 and 0.126 mm^2 | Lesion growth P4 ([2]; 1 ng/mouse s.c. daily): 3.801 mm^2 (2×) and 0.196 mm^2 and 16.96 mm^2 | Lesion establishment M1 ([2]; 1 ng/mouse s.c. daily): 1 | Lesion establishment M2 ([2]; 1 ng/mouse s.c. daily): 1 | Lesion establishment P1 ([2]; 1 ng/mouse s.c. daily): 1 | Lesion establishment P2 ([2]; 1 ng/mouse s.c. daily): 1 | Lesion establishment P3 ([2]; 1 ng/mouse s.c. daily): 1 | Lesion establishment P4 ([2]; 1 ng/mouse s.c. daily): 1 (4×) and 0 | Lesion establishment Ave ([2]; 1 ng/mouse s.c. daily): 100% (4×) and 83.33% | Lesion burden Ave ([2]; 10 ng/mouse s.c. daily): 2.9 mm^2 and 6.7 mm^2 and 11.3 mm^2 and 3.3 mm^2 and 3.5 mm^2 | Lesion growth Ave ([2]; 10 ng/mouse s.c. daily): 2.9 mm^2 and 6.7 mm^2 and 11.3 mm^2 and 3.3 mm^2 and 4.2 mm^2 | Lesion burden Mean ([2]; 10 ng/mouse s.c. daily): 5.53 mm^2 | Lesion establishment Mean ([2]; 10 ng/mouse s.c. daily): 96.67% | Lesion growth Mean ([2]; 10 ng/mouse s.c. daily): 5.72 mm^2 | Lesion burden P1 ([2]; 10 ng/mouse s.c. daily): 1.0 mm^2 and 7.3 mm^2 and 12.6 mm^2 and 3.1 mm^2 and 1.1 mm^2 | Lesion burden P2 ([2]; 10 ng/mouse s.c. daily): 3.5 mm^2 (2×) and 10.0 mm^2 and 7.0 mm^2 and 2.5 mm^2 | Lesion burden P3 ([2]; 10 ng/mouse s.c. daily): 10.9 mm^2 and 4.5 mm^2 and 9.6 mm^2 and 3.5 mm^2 (2×) | Lesion burden P4 ([2]; 10 ng/mouse s.c. daily): 1.0 mm^2 and 6.7 mm^2 and 5.4 mm^2 and 3.0 mm^2 and 0.0 mm^2 | Lesion burden P5 ([2]; 10 ng/mouse s.c. daily): 1.0 mm^2 and 7.1 mm^2 and 21.1 mm^2 and 3.5 mm^2 and 4.0 mm^2 | Lesion burden P6 ([2]; 10 ng/mouse s.c. daily): 0.2 mm^2 and 4.5 mm^2 and 12.1 mm^2 and 3.1 mm^2 and 9.7 mm^2 | Lesion growth M1 ([2]; 10 ng/mouse s.c. daily): 0.95 mm^2 and 7.069 mm^2 and 21.11 mm^2 and 3.464 mm^2 and 3.958 mm^2 | Lesion growth M2 ([2]; 10 ng/mouse s.c. daily): 0.196 mm^2 and 4.524 mm^2 and 12.06 mm^2 and 3.142 mm^2 and 9.66 mm^2 | Lesion growth P1 ([2]; 10 ng/mouse s.c. daily): 0.95 mm^2 and 7.288 mm^2 and 12.57 mm^2 and 3.142 mm^2 and 1.131 mm^2 | Lesion growth P2 ([2]; 10 ng/mouse s.c. daily): 3.464 mm^2 (2×) and 10.02 mm^2 and 7.037 mm^2 and 2.545 mm^2 | Lesion growth P3 ([2]; 10 ng/mouse s.c. daily): 10.95 mm^2 and 4.524 mm^2 and 9.621 mm^2 and 3.464 mm^2 (2×) | Lesion growth P4 ([2]; 10 ng/mouse s.c. daily): 0.95 mm^2 and 6.739 mm^2 and 5.372 mm^2 and 2.969 mm^2 | Lesion establishment M1 ([2]; 10 ng/mouse s.c. daily): 1 | Lesion establishment M2 ([2]; 10 ng/mouse s.c. daily): 1 | Lesion establishment P1 ([2]; 10 ng/mouse s.c. daily): 1 | Lesion establishment P2 ([2]; 10 ng/mouse s.c. daily): 1 | Lesion establishment P3 ([2]; 10 ng/mouse s.c. daily): 1 | Lesion establishment P4 ([2]; 10 ng/mouse s.c. daily): 1 (4×) and 0 | Lesion establishment Ave ([2]; 10 ng/mouse s.c. daily): 100% (4×) and 83.33% | Lesion burden Ave ([2]; 100 ng/mouse s.c. daily): 11.8 mm^2 and 1.8 mm^2 and 3.2 mm^2 and 3.0 mm^2 and 2.9 mm^2 | Lesion growth Ave ([2]; 100 ng/mouse s.c. daily): 11.8 mm^2 and 1.8 mm^2 and 3.2 mm^2 and 3.0 mm^2 and 2.9 mm^2 | Lesion burden Mean ([2]; 100 ng/mouse s.c. daily): 4.52 mm^2 | Lesion establishment Mean ([2]; 100 ng/mouse s.c. daily): 100.00% | Lesion growth Mean ([2]; 100 ng/mouse s.c. daily): 4.52 mm^2 | Lesion burden P1 ([2]; 100 ng/mouse s.c. daily): 7.0 mm^2 and 4.5 mm^2 and 2.8 mm^2 and 2.0 mm^2 and 1.5 mm^2 | Lesion burden P2 ([2]; 100 ng/mouse s.c. daily): 18.5 mm^2 and 2.8 mm^2 and 2.3 mm^2 and 3.1 mm^2 and 3.5 mm^2 | Lesion burden P3 ([2]; 100 ng/mouse s.c. daily): 11.0 mm^2 and 2.3 mm^2 (2×) and 3.5 mm^2 and 4.9 mm^2 | Lesion burden P4 ([2]; 100 ng/mouse s.c. daily): 8.4 mm^2 and 0.2 mm^2 and 3.8 mm^2 and 2.5 mm^2 and 1.8 mm^2 | Lesion burden P5 ([2]; 100 ng/mouse s.c. daily): 12.6 mm^2 and 1.0 mm^2 and 7.5 mm^2 and 3.8 mm^2 and 2.0 mm^2 | Lesion burden P6 ([2]; 100 ng/mouse s.c. daily): 13.2 mm^2 and 0.3 mm^2 (2×) and 2.8 mm^2 and 3.5 mm^2 | Lesion growth M1 ([2]; 100 ng/mouse s.c. daily): 12.57 mm^2 and 0.95 mm^2 and 7.548 mm^2 and 3.801 mm^2 and 2.011 mm^2 | Lesion growth M2 ([2]; 100 ng/mouse s.c. daily): 13.2 mm^2 and 0.283 mm^2 (2×) and 2.835 mm^2 and 3.464 mm^2 | Lesion growth P1 ([2]; 100 ng/mouse s.c. daily): 7.037 mm^2 and 4.453 mm^2 and 2.827 mm^2 and 2.011 mm^2 and 1.539 mm^2 | Lesion growth P2 ([2]; 100 ng/mouse s.c. daily): 18.47 mm^2 and 2.827 mm^2 and 2.27 mm^2 and 3.142 mm^2 and 3.464 mm^2 | Lesion growth P3 ([2]; 100 ng/mouse s.c. daily): 11 mm^2 and 2.27 mm^2 (2×) and 3.464 mm^2 and 4.909 mm^2 | Lesion growth P4 ([2]; 100 ng/mouse s.c. daily): 8.357 mm^2 and 0.196 mm^2 and 3.801 mm^2 and 2.545 mm^2 and 1.767 mm^2 | Lesion establishment M1 ([2]; 100 ng/mouse s.c. daily): 1 | Lesion establishment M2 ([2]; 100 ng/mouse s.c. daily): 1 | Lesion establishment P1 ([2]; 100 ng/mouse s.c. daily): 1 | Lesion establishment P2 ([2]; 100 ng/mouse s.c. daily): 1 | Lesion establishment P3 ([2]; 100 ng/mouse s.c. daily): 1 | Lesion establishment P4 ([2]; 100 ng/mouse s.c. daily): 1 | Lesion establishment Ave ([2]; 100 ng/mouse s.c. daily): 100% | lesion establishment ([2]; range over groups of the model): 97.67%-100% | absence of lesion following treatment [3]: three showed complete absence of lesion
